Data reported in patent publication US11771708B2, “Pharmaceutical carriers capable of pH dependent reconstitution and methods for making and using same” (Greenwood Brands, LLC, priority 2020, dated 2023).

Test: carrier reorganization in simulated gastric fluid and aspirin partitioning (Examples 2 and 3)
Type: physicochemical
Procedure: 5 grams of the composition is added to a beaker equipped with a magnetic stirrer and 50 mL of simulated gastric fluid is added with stirring. […] To this material, a 1 N solution of sodium hydroxide is added slowly to bring the pH up to about pH 7 with stirring. Raising the pH to pH 7 gives rise to a change in the carrier in a high pH environment. To this material, a 1 N solution of hydrochloride acid is added slowly until the pH is lowered to the pH of the simulated gastric fluid. It is expected that the carrier will reorganize. […] Thus, a carrier comprising a sufficient amount of a fatty acid in a triglyceride is capable of reorganization and absorption of a BAI from the low pH fluid, here simulated gastric fluid. 5 grams of the composition is added to a beaker equipped with a magnetic stirrer and 50 mL of simulated gastric fluid is added with stirring. […] To this material, a 1 N solution of sodium hydroxide is added slowly to bring the pH up to about pH 7 with stirring showing the change in the carrier in a high pH environment and the release of aspirin into the high pH environment. To this material, a 1 N solution of hydrochloride acid is added slowly until the pH is lowered to the pH of the simulated gastric fluid. […]

CC(=O)Oc1ccccc1C(=O)O [aspirin]
aspirin partitioning between reorganized carrier and simulated gastric fluid (Example 2: 10 g powdered aspirin added after oleic acid/soybean oil carrier was cycled low pH - pH 7 - low pH): partitions between the reorganized carrier and the simulated gastric fluid
aspirin partitioning between reorganized carrier and simulated gastric fluid (Example 3: carrier (oleic acid/soybean oil) and aspirin 1:1, cycled low pH - pH 7 - low pH): partitions between the reorganized carrier and the simulated gastric fluid
